Our source for the Activity and Relative activity values is ChEMBL document CHEMBL1135214, “Meiosis activating sterols derived from diosgenin” (2002).

Active and inactive are the calls of the source. No cut-off for these calls is given here.

For one test, the species on record is Mus musculus. As to the kind of experiment: Tested for ability to induce meiosis in immature mouse oocytes by measuring the rate of germinal vesicle breakdown (GVB). The test is classed as functional.
For `CC(C)=CCC[C@@H](C)[C@H]1CC=C2C3=C(CC[C@@]21C)[C@@]1(C)CC[C@H](O)C(C)(C)[C@@H]1CC3`, the Activity amounted to 100%.

The species named for the next test is Mus musculus. Nature of the test: Tested for ability to induce meiosis in immature mouse oocytes by measuring the rate of germinal vesicle breakdown (GVB) relative to FF-MAS. The test is classed as functional. Also noted: concentration or dose not given beside the values.
For the compound `CC(C)CCC[C@@H](C)[C@H]1[C@@H](O[Si](C)(C)C(C)(C)C)CC2C3CC=C4C[C@@H](O)CC[C@]4(C)C3CC[C@@]21C` (stereo partly drawn), the Relative activity amounted to 43%.
Consider `C=C(C)CCC[C@@H](C)[C@H]1CC=C2C3=C(CC[C@@]21C)[C@@]1(C)CC[C@H](O)C(C)(C)[C@@H]1CC3`, for which the Relative activity was 106%.
The same measure, in the same setting: under `CC(C)CCC[C@@H](C)[C@H]1[C@@H](O)CC2C3CC=C4C(C)(C)[C@@H](O)CC[C@]4(C)C3CC[C@@]21C` (stereo partly drawn) stands 113%; under `CC(C)CCC[C@@H](C)[C@H]1[C@@H](O)CC2C3CC=C4CCCC[C@]4(C)C3CC[C@@]21C` (stereo partly drawn), 87%.
Regarding `CC(C)CCC[C@@H](C)[C@H]1[C@@H](O)CC2C3=CC=C4C(C)(C)[C@@H](O)CC[C@]4(C)C3CC[C@@]21C` (stereo partly drawn), the Relative activity was 90%.
Take `C[C@@H](CI)CCC[C@@H](C)[C@H]1CC=C2C3=C(CC[C@@]21C)[C@@]1(C)CC[C@H](O)C(C)(C)[C@@H]1CC3`: the Relative activity came to 85%.
Same read-out and setting: the result for `CC(CO)CCC[C@@H](C)[C@H]1CC[C@H]2[C@@H]3CC=C4C(C)(C)[C@@H](O)CC[C@]4(C)[C@H]3CC[C@]12C` (single isomer, unassigned) reads 71%; that for `C[C@@H](CO)CCC[C@@H](C)[C@H]1CCC2C3=CC=C4C(C)(C)[C@@H](O)CC[C@]4(C)C3CC[C@@]21C` (stereo partly drawn), 89%.
In the case of `C[C@H](CCCC(C)(C)Cl)[C@H]1CC=C2C3=C(CC[C@@]21C)[C@@]1(C)CC[C@H](O)C(C)(C)[C@@H]1CC3`, the Relative activity is listed as 62%.
On the same count and under the same terms, the result for `C[C@@H](CCl)CCC[C@@H](C)[C@H]1CC=C2C3=C(CC[C@@]21C)[C@@]1(C)CC[C@H](O)C(C)(C)[C@@H]1CC3` reads 87%.

Another test is filed under the species Mus musculus. Nature of the test: Tested for ability to induce meiosis in immature mouse oocytes by measuring the rate of germinal vesicle breakdown (GVB) relative to FF-MAS; na means Not active. The test is classed as functional.
`C[C@@H](CO)CCC[C@@H](C)[C@H]1CC=C2C3=C(CC[C@@]21C)[C@@]1(C)CC[C@H](O)C(C)(C)[C@@H]1CC3`: the Relative activity entry is “inactive”.
Consider `C[C@@H](CO)CCC[C@@H](C)[C@H]1CCC2C3CC=C4C[C@@H](O)CC[C@]4(C)C3CC[C@@]21C` (stereo partly drawn), for which the Relative activity result was “inactive”.
